# Reference: patent US7732484B2, “Use of selective adenosine A1 receptor allosteric enhancers to manipulate angiogenesis” (University of Virginia Patent Foundation, priority 2000, dated 2010)
# Tests used:
# [1] = system: chicken chorioallantoic membrane (CAM); assay: Windowed CAM assay, Elvax pellet, vascular density index; type: in vivo; settings: Elvax pellet with 3 mg adenosine, in place for seven days, 12-15 eggs per group, FIG. 5
# Protocol: Fertile White Leghorn chicken eggs were obtained from Truslow Farms (Chesterfield, Mo.). Eggs were incubated at 37° for 7 days, then a 1.5 cm window was cut into each egg over the CAM. Pellets were applied to the CAMs and the windows closed with cellophane tape. Eggs were incubated until day 14 when the CAMs were fixed. […] The pellets were placed on the CAM where there were a few vessels present and were left in place for seven days. The CAMs then were fixed in 10% buffered formalin and vessels were counted under 20× magnification using a Nikon stereomicroscope. The quantitation of vascular number is presented as vascular density index VDI that was an adaptation of a method described by Harris-Hooker (Harris-Hooker et al., Neovascular Responses Induced by Cultured Aortic Endothelial Cells, J. Cell. Phys., 114, 302-310, 1983). A plastic cover slip inscribed with 4, 5, 6, and 8 mm diameter concentric circles was centered over the adenosine pellet on the formalin-fixed CAM. The vascular density was judged by counting the numbers of the vessels which intersected the circles. This technique allowed counting of vessels down to 10-12 u in diameter. The positioning of the pellets on the CAM was randomized. […] Adenosine was delivered by other means as well.
# [2] = system: chicken chorioallantoic membrane (CAM); assay: CAM assay, drug applied daily on filter paper disc, vessels counted; type: in vivo; settings: for angiogenic response in the CAM (vessel density at edge of disk): 100 μl daily for 7 days on filter paper disk
# Protocol: Adenosine receptor subtype selective agonists stimulate angiogenesis to varying degrees in the CAM. […] In these studies, sterile filter paper disks were used to apply drug or vehicle to the CAM of eggs windowed after 7 days of incubation. The circular disk was 7 mm diameter. The agonist and antagonist drugs were delivered daily for 7 days in a volume of 100 μl placed onto the disks. On day 14 the CAMs were formalin fixed. The vessel density was determined by counting the vessels that intersected with the edge of the disks. Each bar represents data from between 13 and 19 eggs, with the exception of the bar for xanthine amine congener (XAC) which represents only four eggs. […] It is possible that some adenosine receptors may stimulate angiogenesis, while others, particularly the A2A receptor, may inhibit it. […] The 100 nM doses used should have allowed some preservation of subtype selectivity for the ligands.
# Fertile White Leghorn chicken eggs are obtained from Truslow Labs (Maryland) and incubated until day 7 post-fertilization at 37° C. The eggs were automatically rotated by the incubator. On day 7 the eggs were candled to check for viability. The eggshell surface was cleaned with betadine and 70% isopropanol. A window 1.5×1.5 cm was cut into each egg over the CAM. The window was covered with clear cellophane tape and the eggs incubated at 37° C. overnight. The following day a sterile filter paper disc was applied to the CAM for the daily delivery of drugs or vehicle in a volume of 100 μl. CAMs were fixed on day 14 and vessels counted using the aforementioned method of Harris-Hooker et al.
# CPA at 100 nM with or without 1 μM WRC-0571 was applied to filter paper discs on developing CAMs as described above.
# Here, PD enhances the effects of endogenous adenosine on the chicken A1 receptor in the CAM. PD at a concentration of 100 μM, or vehicle, was delivered to the CAM on a filter paper disc using a protocol identical to that used for adenosine agonists. […] A small effect such as this in the absence of applied ligand or ischemia/hypoxia (which would increase the endogenous adenosine levels) is expected. Because it is a rapidly growing tissue, the CAM probably has higher levels of adenosine than more quiescent tissues, resulting in a measurable effect.
# [3] = system: chicken chorioallantoic membrane (CAM); assay: as above; type: in vivo; settings: 20 nM CPA alone, FIG. 10
# [4] = molecular target: T1, human A3 over the A1 receptor (Homo sapiens, UniProt P0DMS8); settings: cited from earlier work
# T1 sequence (P0DMS8 1-318): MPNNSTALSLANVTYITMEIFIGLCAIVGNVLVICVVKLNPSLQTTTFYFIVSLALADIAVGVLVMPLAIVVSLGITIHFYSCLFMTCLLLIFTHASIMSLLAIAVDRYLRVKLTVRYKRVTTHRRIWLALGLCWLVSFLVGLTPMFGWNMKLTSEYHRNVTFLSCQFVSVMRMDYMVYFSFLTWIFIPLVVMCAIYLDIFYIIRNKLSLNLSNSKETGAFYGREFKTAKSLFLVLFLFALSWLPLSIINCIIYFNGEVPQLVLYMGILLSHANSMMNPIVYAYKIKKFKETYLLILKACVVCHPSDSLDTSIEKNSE
# [5] = system: rat mesentery; assay: Rat mesentery angiogenesis, intraperitoneal Alzet osmotic pump infusion; type: in vivo; settings: chronic infusion by Alzet pump into the peritoneal cavity, one week, FIG. 11
# Protocol: Drug application into rat mesentery using infusion pumps. Alzet osmotic pumps were filled with drug or vehicle to a volume of 200 μl . The abdominal cavities of anesthetized 150 g Sprague-Dawley rats were incised and pumps implanted into the intraperitoneal cavity. The pumps delivered the drug at 1.0 μl/hr. After one week mesenteric samples were taken between vascular arcades along the length of the small bowel. Specimens were fixed and stained using a BS:lectin stain.
# The control mesentery is shown on the left, PD 81,723—treated on the right. The chronic infusion was an advantage because the model is not an ischemic one, so steady long term administration of the PD 81,723 may help to augment the effects of lower concentrations of endogenous adenosine.
smiles,measurement,setting,value
"Nc1ncnc2c1ncn2[C@@H]1O[C@H](CO)[C@@H](O)[C@H]1O [Adenosine, adenosine]",angiogenesis in the CAM model (vascular density index),[1],stimulated angiogenesis
CCNC(=O)[C@H]1O[C@@H](n2cnc3c(N)nc(NCCc4ccc(CCC(=O)O)cc4)nc32)[C@H](O)[C@@H]1O [CGS21680],angiogenic response in the CAM (vessel density at edge of disk),"[2]; 100 nM doses, FIG. 6",No angiogenic response
"OC[C@H]1O[C@@H](n2cnc3c(NC4CCCC4)ncnc32)[C@H](O)[C@@H]1O [CPA, Cyclopentyladenosine]",stimulation of angiogenesis in the CAM,[3],did not stimulate angiogenesis
same,angiogenic response in the CAM (vessel density at edge of disk),"[2]; 100 nM doses, FIG. 6",positive angiogenic response
CCOC(=O)C1=C(C)NC(c2ccccc2)=C(C(=O)OCc2ccccc2)C1C#Cc1ccccc1 (centres unmarked) [MRS 1191],selectivity for the human A3 over the A1 receptor,[4],> 1300 fold
CCNC(=O)[C@H]1O[C@@H](n2cnc3c(N)ncnc32)[C@H](O)[C@@H]1O [NECA],angiogenic response in the CAM (vessel density at edge of disk),"[2]; 100 nM doses, FIG. 6",positive angiogenic response
"Cc1sc(N)c(C(=O)c2cccc(C(F)(F)F)c2)c1C [PD 81,723]",stimulation of angiogenesis in rat mesentery,[5],Stimulation of angiogenesis
same,stimulation of angiogenesis in the CAM,"[2]; 100 μM on filter paper disc versus vehicle, FIG. 8",10%
CC(C)N(C)c1nc2c(N[C@@H]3CC4CC3CC4O)ncnc2n1C (some centres unmarked) [WRC-0571],block of the angiogenic effect of CPA in the CAM,"[2]; 1 μM WRC-0571 with 100 nM CPA, FIG. 7",completely blocked
same,block of the effects of endogenous adenosine on angiogenesis in the CAM,[2]; FIG. 8,blocked the effects of endogenous adenosine
same,block of C17-stimulated angiogenesis in the CAM,[2]; FIG. 9,blocked
same,"block of the effects of PD 81,723 in the CAM","[2]; with PD at 100 μM, FIG. 8",completely blocked
"CCCn1c(=O)c2[nH]c(-c3ccc(OCC(=O)NCCN)cc3)nc2n(CCC)c1=O [XAC, xanthine amine congener]",inhibition of baseline angiogenesis in the CAM,"[2]; 100 nM doses, daily for 7 days on filter paper disk, four eggs, FIG. 6",did not inhibit baseline angiogenesis
"CNC(=O)[C@H]1O[C@@H](n2cnc3c(NCc4cccc(I)c4)ncnc32)[C@H](O)[C@@H]1O [m-MECA, N^6-iodobenzyl-5′-N-methyl-carboxamidoadenosine]",angiogenic response in the CAM (vessel density at edge of disk),"[2]; 100 nM doses, FIG. 6",positive angiogenic response
